Changes are numbered by the printed parent chain. Where a SMILES comes first, the peptide text is derived from it. Bridges are numbered along the chain shown (N, C = ends).
Tests used:
Test in all cases: ERK1/2 phosphorylation
Format in all cases: cell-based
hCTR S292A = molecular target: T1, hCTR S292A (Homo sapiens, UniProt P30988, S292A); conditions: CV1-FlpIn cells, mean ± S.E.M.; for Emax: pERK maximal response; for EC50: pERK, three-parameter logistic fit
T1 construct: expressed in transfected cells
T1 sequence (P30988 25-474 S292A): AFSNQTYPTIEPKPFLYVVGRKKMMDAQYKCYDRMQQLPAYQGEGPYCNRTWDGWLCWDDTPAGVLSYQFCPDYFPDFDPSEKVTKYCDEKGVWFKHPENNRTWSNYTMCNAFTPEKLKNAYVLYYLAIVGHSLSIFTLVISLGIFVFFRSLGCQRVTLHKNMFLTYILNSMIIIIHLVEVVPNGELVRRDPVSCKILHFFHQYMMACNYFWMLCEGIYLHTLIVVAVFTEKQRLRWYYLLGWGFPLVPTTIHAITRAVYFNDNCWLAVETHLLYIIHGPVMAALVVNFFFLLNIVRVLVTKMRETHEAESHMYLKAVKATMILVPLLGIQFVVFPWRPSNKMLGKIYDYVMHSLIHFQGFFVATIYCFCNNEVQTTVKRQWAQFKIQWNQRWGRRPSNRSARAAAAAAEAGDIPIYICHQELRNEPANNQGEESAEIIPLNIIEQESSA
Method in brief: (§1)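 Cells were seeded at 2.5 × 10^4 cells/well and cultured overnight before stimulation. ERK1/2 phosphorylation was normalized to the maximal response to 10% FBS measured at 6 min. EC50 and Emax came from a 3-parameter logistic fit of concentration-response curves.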

hCTR D287A = molecular target: T2, hCTR D287A (Homo sapiens, UniProt P30988, D287A); conditions: CV1-FlpIn cells, mean ± S.E.M.; for Emax: pERK maximal response
T2 construct: c-Myc (N); expressed in transfected cells
T2 sequence (P30988 25-474 D287A): T1 sequence (P30988 25-474 S292A) with D263A, A268S
Method in brief: as §1

hCTR L291A = molecular target: T3, hCTR L291A (Homo sapiens, UniProt P30988, L291A); conditions: CV1-FlpIn cells, mean ± S.E.M.; for Emax: pERK maximal response
T3 construct: expressed in transfected cells
T3 sequence (P30988 25-474 L291A): T1 sequence (P30988 25-474 S292A) with L267A, A268S
Method in brief: as §1

hCTR M367A = molecular target: T4, hCTR M367A (Homo sapiens, UniProt P30988, M367A); conditions: CV1-FlpIn cells, mean ± S.E.M.; for Emax: pERK maximal response; for EC50: pERK, three-parameter logistic fit
T4 construct: c-Myc (N); expressed in transfected cells
T4 sequence (P30988 25-474 M367A): T1 sequence (P30988 25-474 S292A) with A268S, M343A
Method in brief: as §1

hCTR T280A = molecular target: T5, hCTR T280A (Homo sapiens, UniProt P30988, T280A); conditions: CV1-FlpIn cells, mean ± S.E.M.; for Emax: pERK maximal response; for EC50: pERK, three-parameter logistic fit
T5 construct: expressed in transfected cells
T5 sequence (P30988 25-474 T280A): T1 sequence (P30988 25-474 S292A) with T256A, A268S
Method in brief: as §1

[1] = pERK, three-parameter logistic fit

EC50 (hCTR S292A) [nM]	EC50 (hCTR M367A) [nM]	EC50 (hCTR T280A) [nM]	EC50 (hCTR D287A; [1]) [nM]	EC50 (hCTR L291A; [1]) [nM]	Structure (SMILES)	Emax (hCTR S292A) [%]	Emax (hCTR D287A) [%]	Emax (hCTR L291A) [%]	Emax (hCTR M367A) [%]	Emax (hCTR T280A) [%]
					CC[C@H](C)[C@H](NC(=O)[C@H](C)NC(=O)[C@@H](NC(=O)[C@H](CCC(N)=O)NC(=O)[C@@H]1CCCN1C(=O)[C@H](Cc1ccccc1)NC(=O)[C@@H](NC(=O)[C@H](Cc1c[nH]cn1)NC(=O)[C@H](Cc1ccccc1)NC(=O)[C@H](CCCCN)NC(=O)[C@H](CC(N)=O)NC(=O)[C@H](Cc1ccccc1)NC(=O)[C@H](CC(=O)O)NC(=O)[C@H](CCC(N)=O)NC(=O)[C@@H](NC(=O)[C@H](Cc1ccc(O)cc1)NC(=O)[C@@H](NC(=O)CNC(=O)[C@H](CC(C)C)NC(=O)[C@H](CCSC)NC(=O)[C@@H]1CSSC[C@H](N)C(=O)NCC(=O)N[C@@H](CC(N)=O)C(=O)N[C@@H](CC(C)C)C(=O)N[C@@H](CO)C(=O)N[C@@H]([C@@H](C)O)C(=O)N1)[C@@H](C)O)[C@@H](C)O)[C@@H](C)O)[C@@H](C)O)C(=O)NCC(=O)N[C@H](C(=O)NCC(=O)N[C@@H](C)C(=O)N1CCC[C@H]1C(N)=O)C(C)C [hCT]	116 ± 11	35 ± 5	72 ± 9	127 ± 7	168 ± 12
20.9	107	53.7			CC(C)C[C@H](NC(=O)CNC(=O)[C@H](C)NC(=O)[C@H](CC(C)C)NC(=O)[C@H](CCCNC(=N)N)NC(=O)[C@H](Cc1cnc[nH]1)NC(=O)[C@@H](NC(=O)[C@@H](NC(=O)[C@@H]1CSSC[C@H](NC(=O)[C@H](C)N)C(=O)N[C@@H](CC(=O)O)C(=O)N[C@@H]([C@@H](C)O)C(=O)N[C@@H](C)C(=O)N[C@@H]([C@@H](C)O)C(=O)N1)C(C)C)[C@@H](C)O)C(=O)N[C@@H](CC(C)C)C(=O)N[C@@H](CO)C(=O)N[C@@H](CCCNC(=N)N)C(=O)N[C@@H](CO)C(=O)NCC(=O)NCC(=O)N[C@H](C(=O)N[C@H](C(=O)N[C@@H](CCCCN)C(=O)N[C@@H](CC(N)=O)C(=O)N[C@@H](CC(N)=O)C(=O)N[C@@H](Cc1ccccc1)C(=O)N[C@H](C(=O)N1CCC[C@H]1C(=O)N[C@H](C(=O)N[C@@H](CC(N)=O)C(=O)N[C@H](C(=O)NCC(=O)N[C@@H](CO)C(=O)N[C@@H](CCCCN)C(=O)N[C@@H](C)C(=O)N[C@@H](Cc1ccccc1)C(N)=O)C(C)C)[C@@H](C)O)C(C)C)C(C)C)C(C)C [hαCGRP]	80 ± 12			78 ± 12	106 ± 12
0.55	2.75	2.04	12.6	9.55	CSCC[C@H](NC(=O)CNC(=O)[C@H](CO)NC(=O)[C@H](Cc1ccccc1)NC(=O)[C@H](CCCNC(=N)N)NC(=O)[C@H](Cc1c[nH]cn1)NC(=O)[C@H](Cc1ccccc1)NC(=O)[C@H](CC(N)=O)NC(=O)[C@H](CC(N)=O)NC(=O)[C@H](CC(C)C)NC(=O)[C@H](CC(N)=O)NC(=O)[C@H](CCCNC(=N)N)NC(=O)[C@H](Cc1c[nH]c2ccccc12)NC(=O)[C@H](Cc1ccc(O)cc1)NC(=O)[C@H](C)NC(=O)[C@H](CO)NC(=O)[C@H](CC(C)C)NC(=O)[C@@H](NC(=O)[C@@H]1CSSC[C@H](N)C(=O)N[C@@H](CO)C(=O)N[C@@H](CC(N)=O)C(=O)N[C@@H](CC(C)C)C(=O)N[C@@H](CO)C(=O)N[C@@H]([C@@H](C)O)C(=O)N1)C(C)C)C(=O)NCC(=O)N[C@@H](Cc1ccccc1)C(=O)NCC(=O)N1CCC[C@H]1C(=O)N[C@@H](CCC(=O)O)C(=O)N[C@H](C(=O)N1CCC[C@H]1C(N)=O)[C@@H](C)O [pCT] (H-CSNLSTCVLSAYWRNLNNFHRFSGMGFGPETP-NH2; disulfide 1-7)	104 ± 7	27 ± 3	77 ± 5	172 ± 10	160 ± 10
					CC(C)C[C@H](NC(=O)[C@H](CC(N)=O)NC(=O)[C@H](CC(N)=O)NC(=O)[C@H](CO)NC(=O)[C@H](CO)NC(=O)[C@H](CCCNC(=N)N)NC(=O)[C@@H](NC(=O)[C@H](CC(C)C)NC(=O)[C@H](Cc1ccccc1)NC(=O)[C@H](CC(N)=O)NC(=O)[C@H](C)NC(=O)[C@H](CC(C)C)NC(=O)[C@H](CCCNC(=N)N)NC(=O)[C@H](CCC(N)=O)NC(=O)[C@@H](NC(=O)[C@H](C)NC(=O)[C@@H]1CSSC[C@H](NC(=O)[C@@H](N)CCCCN)C(=O)N[C@@H](CC(N)=O)C(=O)N[C@@H]([C@@H](C)O)C(=O)N[C@@H](C)C(=O)N[C@@H]([C@@H](C)O)C(=O)N1)[C@@H](C)O)C(C)C)C(=O)NCC(=O)N1CCC[C@H]1C(=O)N[C@H](C(=O)N[C@@H](CC(C)C)C(=O)N1CCC[C@H]1C(=O)N1CCC[C@H]1C(=O)N[C@H](C(=O)N[C@@H](CC(N)=O)C(=O)N[C@H](C(=O)NCC(=O)N[C@@H](CO)C(=O)N[C@@H](CC(N)=O)C(=O)N[C@H](C(=O)N[C@@H](Cc1ccc(O)cc1)C(N)=O)[C@@H](C)O)C(C)C)[C@@H](C)O)C(C)C [rAmy]	96 ± 12		41 ± 4	77 ± 5	110 ± 11
					CC(C)C[C@H](NC(=O)[C@H](CCCCN)NC(=O)CNC(=O)[C@H](CC(C)C)NC(=O)[C@@H](NC(=O)[C@@H]1CSSC[C@H](N)C(=O)N[C@@H](CO)C(=O)N[C@@H](CC(N)=O)C(=O)N[C@@H](CC(C)C)C(=O)N[C@@H](CO)C(=O)N[C@@H]([C@@H](C)O)C(=O)N1)C(C)C)C(=O)N[C@@H](CO)C(=O)N[C@@H](CCC(N)=O)C(=O)N[C@@H](CCC(=O)O)C(=O)N[C@@H](CC(C)C)C(=O)N[C@@H](Cc1c[nH]cn1)C(=O)N[C@@H](CCCCN)C(=O)N[C@@H](CC(C)C)C(=O)N[C@@H](CCC(N)=O)C(=O)N[C@H](C(=O)N[C@@H](Cc1ccc(O)cc1)C(=O)N1CCC[C@H]1C(=O)N[C@@H](CCCNC(=N)N)C(=O)N[C@H](C(=O)N[C@@H](CC(N)=O)C(=O)N[C@H](C(=O)NCC(=O)N[C@@H](CO)C(=O)NCC(=O)N[C@H](C(=O)N1CCC[C@H]1C(N)=O)[C@@H](C)O)[C@@H](C)O)[C@@H](C)O)[C@@H](C)O [sCT]	121 ± 7	39 ± 2	107 ± 5	130 ± 4	158 ± 12

Reference: PMC5908784, “Extracellular loops 2 and 3 of the calcitonin receptor selectively modify agonist binding and efficacy” (Biochemical Pharmacology, 2018)
